Test results taken from patent US9695155B2, “Herbicidal substituted pyrimidinyloxy benzene compounds” (E. I. DU PONT DE NEMOURS AND COMPANY, priority 2013, dated 2017).

What was measured:
wild radish = test: Test D preemergence; format: in vivo, Raphanus raphanistrum; settings: Raphanus raphanistrum, pre-emergence
Outline: (§1)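 In a controlled growth environment, treated and control plants were held 7 to 21 days, then compared visually. Damage was scored 0–100, where 100 means complete control. Sprays contained surfactant in a non-phytotoxic solvent; post-applied plants were at the 1- to 4-leaf stage.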

oilseed rape = test: Test D postemergence; format: in vivo, Brassica napus; settings: Brassica napus, post-emergence, scale 0 to 100 (0 no effect, 100 complete control), read-out: Plant response rating, Oilseed Rape
Outline: as §1

canarygrass [1] = test: Test D preemergence; format: in vivo, Phalaris minor; settings: Phalaris minor, pre-emergence, scale 0-100, read-out: Plant response rating, Canarygrass
Outline: as §1

wild buckwheat = test: Test D postemergence; format: in vivo, Polygonum convolvulus; settings: Fallopia convolvulus, post-emergence, Postemergence, scale 0 to 100 (0 no effect, 100 complete control), read-out: Plant response rating, Buckwheat, Wild
Outline: as §1

kochia = test: Test D preemergence; format: in vivo, Kochia scoparia; settings: Bassia scoparia, pre-emergence, scale 0-100, read-out: Plant response rating, Kochia
Outline: as §1

canarygrass [2] = test: Test D postemergence; format: in vivo, Phalaris minor; settings: Phalaris minor, post-emergence, scale 0 to 100 (0 no effect, 100 complete control), read-out: Plant response rating, Canarygrass
Outline: as §1

lambsquarters = test: Test D postemergence; format: in vivo, Chenopodium album; settings: Chenopodium album, post-emergence, scale 0 to 100 (0 no effect, 100 complete control), read-out: Plant response rating, Lambsquarters
Outline: as §1

green foxtail = test: Test D postemergence; format: in vivo, Setaria viridis; settings: Setaria viridis, post-emergence, scale 0 to 100 (0 no effect, 100 complete control), read-out: Plant response rating, Foxtail, Green
Outline: as §1

dayflower = test: Test E postemergence; format: in vivo, Commelina virginica; settings: Commelina virginica, post-emergence, read-out: Plant response rating, Dayflower, VA
Outline: (§2)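 Test chemicals formulated in a non-phytotoxic solvent mixture containing a surfactant were applied preemergence to seeds in silt loam soil or postemergence to plants at the 1- to 4-leaf stage in potting mix. After 14 to 21 days in a greenhouse, injury was visually rated against controls on a 0-100 scale (0 = no effect, 100 = complete control).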

chickweed = test: Test D postemergence; format: in vivo, Stellaria media; settings: Stellaria media, post-emergence, scale 0 to 100 (0 no effect, 100 complete control), read-out: Plant response rating, Chickweed
Outline: as §1

arrowleaf sida = test: Test E postemergence; format: in vivo, Sida rhombifolia; settings: Sida rhombifolia, post-emergence, read-out: Plant response rating, Arrowleaf Sida
Outline: as §2

pigweed = test: Test D postemergence; format: in vivo, Amaranthus retroflexus; settings: Amaranthus retroflexus, post-emergence, scale 0 to 100 (0 no effect, 100 complete control), read-out: Plant response rating, Pigweed
Outline: as §1

corn = test: Test E postemergence; format: in vivo, Zea mays; settings: Zea mays, post-emergence
Outline: as §2

[3] = Postemergence, 31 g ai/ha, scale 0 to 100
[4] = Postemergence, 62 g ai/ha, scale 0 to 100
[5] = Postemergence, 125 g ai/ha, scale 0 to 100
[6] = Postemergence, 250 g ai/ha, scale 0 to 100
[7] = postemergence, 16 g ai/ha, scale 0 to 100, 0 no effect, 100 complete control

N#Cc1cccc(Oc2ncc(Br)cn2)c1-n1cc(C(F)(F)F)cn1 [Compound 59, 3-[(5-bromo-2-pyrimidinyl)oxy]-2-[4-(trifluoromethyl)-1H-pyrazol-1-yl]benzonitrile]
85%: pest or weed control at 62 g/ha (lambsquarters; 62 g ai/ha) | pest or weed control at 125 g/ha (arrowleaf sida; [5])
50%: pest or weed control at 125 g/ha (green foxtail; 125 g ai/ha) | pest or weed control at 62 g/ha (dayflower; [4])
65%: plant injury at 31 g/ha (oilseed rape; 31 g ai/ha) | plant injury at 62 g/ha (oilseed rape; 62 g ai/ha) | pest or weed control at 125 g/ha (canarygrass [1]; 125 g ai/ha) | pest or weed control at 16 g/ha (arrowleaf sida; [7])
75%: plant injury at 125 g/ha (oilseed rape; 125 g ai/ha) | pest or weed control at 62 g/ha (chickweed; 62 g ai/ha)
70%: pest or weed control at 125 g/ha (dayflower; [5]) | pest or weed control at 31 g/ha (chickweed; 31 g ai/ha) | pest or weed control at 31 g/ha (arrowleaf sida; [3])
5%: pest or weed control at 31 g/ha (canarygrass [1]; 31 g ai/ha) | corn plant response (injury) rating, 0-100 at 31 g/ha (corn; [3]) | corn plant response (injury) rating, 0-100 at 16 g/ha (corn; [7])
80%: pest or weed control at 31 g/ha (wild buckwheat; 31 g ai/ha) | pest or weed control at 62 g/ha (kochia; 62 g ai/ha) | pest or weed control at 125 g/ha (lambsquarters; 125 g ai/ha) | pest or weed control at 250 g/ha (green foxtail; 250 g ai/ha) | pest or weed control at 62 g/ha (arrowleaf sida; [4])
95%: pest or weed control at 31 g/ha (wild radish; 31 g ai/ha, scale 0 (no effect) to 100 (complete control), read-out: Plant response rating, Radish, Wild) | pest or weed control at 125 g/ha (wild radish; 125 g ai/ha, scale 0-100, read-out: Plant response rating, Radish, Wild) | pest or weed control at 250 g/ha (lambsquarters; 250 g ai/ha) | pest or weed control at 125 g/ha (chickweed; 125 g ai/ha) | pest or weed control at 250 g/ha (chickweed; 250 g ai/ha) | pest or weed control at 125 g/ha (pigweed; 125 g ai/ha) | pest or weed control at 250 g/ha (pigweed; 250 g ai/ha)
90%: pest or weed control at 31 g/ha (kochia; 31 g ai/ha) | pest or weed control at 31 g/ha (lambsquarters; 31 g ai/ha) | pest or weed control at 250 g/ha (arrowleaf sida; [6])
20%: pest or weed control at 31 g/ha (canarygrass [2]; 31 g ai/ha) | pest or weed control at 31 g/ha (green foxtail; 31 g ai/ha) | pest or weed control at 16 g/ha (dayflower; [7])
100%: pest or weed control at 62 g/ha (wild radish; 62 g ai/ha, scale 0-100, read-out: Plant response rating, Radish, Wild) | pest or weed control at 250 g/ha (wild radish; 250 g ai/ha, scale 0-100, read-out: Plant response rating, Radish, Wild) | plant injury at 250 g/ha (oilseed rape; 250 g ai/ha) | pest or weed control at 250 g/ha (canarygrass [1]; 250 g ai/ha) | pest or weed control at 62 g/ha (wild buckwheat; 62 g ai/ha) | pest or weed control at 125 g/ha (wild buckwheat; 125 g ai/ha) | pest or weed control at 250 g/ha (wild buckwheat; 250 g ai/ha) | pest or weed control at 125 g/ha (kochia; 125 g ai/ha) | pest or weed control at 250 g/ha (kochia; 250 g ai/ha) | pest or weed control at 250 g/ha (dayflower; [6]) | pest or weed control at 31 g/ha (pigweed; 31 g ai/ha) | pest or weed control at 62 g/ha (pigweed; 62 g ai/ha)
35%: pest or weed control at 125 g/ha (canarygrass [2]; 125 g ai/ha) | pest or weed control at 250 g/ha (canarygrass [2]; 250 g ai/ha) | pest or weed control at 62 g/ha (green foxtail; 62 g ai/ha) | pest or weed control at 31 g/ha (dayflower; [3])
15%: pest or weed control at 62 g/ha (canarygrass [1]; 62 g ai/ha) | corn plant response (injury) rating, 0-100 at 250 g/ha (corn; [6])
10%: corn plant response (injury) rating, 0-100 at 62 g/ha (corn; [4]) | corn plant response (injury) rating, 0-100 at 125 g/ha (corn; [5])
30%: pest or weed control at 62 g/ha (canarygrass [2]; 62 g ai/ha)
